# Results: US20210403460A1, “INHIBITORS OF MUTANT ISOCITRATE DEHYDROGENASES AND COMPOSITIONS AND METHODS THEREOF” (IsoCure Biosciences Inc., priority 2016, published 2021)
# Key:
# Format in all cases: biochemical
# IDH1 (R132H) = IDH1 (R132H) (Homo sapiens, UniProt O75874, R132H); assay: IDH1 R132H enzyme assay, NADPH depletion by diaphorase/resazurin coupled detection; conditions: 60 min preincubation with enzyme/NADPH, 45 min reaction, room temperature
# Experimental: (§1) Compounds were tested against 3 enzymes WT IDH1, IDH1 R132C, IDH1 R132H
# (§2) Assay Format: The production or depletion of NADPH by IDH enzymes was measured by diaphorase/resazurin coupled detection.
# (§3) Reaction Procedure Mutant:
# (§4) 8. Deliver enzyme/NADPH in the reaction buffer into wells of reaction plate except No Enzyme control wells. Add buffer+NADPH into No Enzyme wells. 9. Deliver compound in 100% DMSO into the enzyme mixture. Spin down and preincubate for 60 min at room temperature. 10. Deliver Substrate mixture to initiate the reaction. Spin down plate and gently shake 45 minutes at room temperature.
# (§5) Detection Step (the Same as Wt):
# (§6) 11. Make a 3× mix of Detection mixture in the reaction buffer, and add detection mixture into the reaction. Spin down. 12. Incubate at room temperature for 10 minutes.
# (§7) 13. Measure in Envision. (Ex/Em=535/590 nm)
# (§8) 14. […] (the average value of the No Enzyme wells). Average the DMSO control wells and set value as 100%. Take ratio of measured data/average DMSO control value times 100% to arrive at % activity.
# IDH1 (R132C) = IDH1 (R132C) (Homo sapiens, UniProt O75874, R132C); assay: IDH1 R132C enzyme assay, NADPH depletion by diaphorase/resazurin coupled detection; conditions: 60 min preincubation with enzyme/NADPH, 45 min reaction, room temperature
# Chain of IDH1 (R132C) (O75874 whole entry R132C): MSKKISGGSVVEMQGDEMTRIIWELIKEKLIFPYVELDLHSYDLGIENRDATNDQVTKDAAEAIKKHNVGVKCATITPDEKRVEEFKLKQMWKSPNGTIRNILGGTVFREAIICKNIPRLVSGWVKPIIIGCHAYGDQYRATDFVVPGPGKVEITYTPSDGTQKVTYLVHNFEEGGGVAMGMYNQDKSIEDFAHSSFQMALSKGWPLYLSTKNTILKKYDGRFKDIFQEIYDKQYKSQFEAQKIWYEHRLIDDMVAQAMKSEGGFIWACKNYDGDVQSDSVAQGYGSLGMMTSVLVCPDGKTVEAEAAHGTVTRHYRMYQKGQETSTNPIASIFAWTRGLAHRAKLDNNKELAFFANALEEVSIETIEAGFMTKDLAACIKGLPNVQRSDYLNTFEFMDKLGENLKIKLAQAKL
# Experimental: as §1, §2, §3, §4, §5, §6, §7, §8
# WT IDH1 = WT IDH1 (Homo sapiens, UniProt O75874); assay: Wild-type IDH1 enzyme assay, NADPH production by diaphorase/resazurin coupled detection; conditions: 60 min preincubation with enzyme/NADP, 45 min reaction, room temperature
# Chain of WT IDH1 (O75874 whole entry): as the sequence (O75874 whole entry R132C) above, with C132R counted along it
# Experimental: as §1, §2
# Reaction Procedure Wild-Type:
# as §4, with “1.” for “8.”, “enzyme/NADP” for “enzyme/NADPH”, “buffer+NADP” for “buffer+NADPH”, “2.” for “9.”, “3.” for “10.”
# 4. Make a 3× mix of Detection mixture in the reaction buffer, and add detection mixture into the reaction. Spin down. 5. Incubate at room temperature for 10 minutes.
# 6. Measure in Envision. (Ex/Em=535/590 nm)
# 7. Subtract background (the average value of the No Enzyme control wells) from raw data. Average the DMSO control wells and set value as 100%. Take ratio of measured data/average DMSO control value times 100% to arrive at % activity.
# Chain of IDH1 (R132H) (O75874 whole entry R132H): as the sequence (O75874 whole entry R132C) above, with C132H counted along it
SMILES,IC50 (IDH1 (R132H)) [nM],IC50 (IDH1 (R132C)) [nM],IC50 (WT IDH1) [nM]
"C=CC(=O)Nc1ccc(N(C)c2cnc(C(C)Nc3nccc(N4C(=O)OC[C@@H]4C(C)C)n3)nc2)cc1 (stereo partly drawn) [IS012, N-(4-((2-(1-((4-((S)-4-isopropyl-2-oxooxazolidin-3-yl)pyrimidin-2-yl)amino)ethyl)pyrimidin-5-yl)(methyl)amino)phenyl)acrylamide]",161,198,
"C=CC(=O)Nc1ccc(Nc2ccc([C@H](C)Nc3nccc(N4C(=O)OC[C@@H]4C(C)C)n3)cc2)nc1 [IS03, N-(6-((4-((S)-1-((4-((S)-4-isopropyl-2-oxooxazolidin-3-yl)pyrimidin-2-yl)amino)ethyl)phenyl)amino)pyridin-3-yl)acrylamide]",3.61,3.35,8520
"C=CC(=O)N1CCN(Cc2ccc([C@H](C)Nc3nc(N4C(=O)OC[C@@H]4C(C)C)c4sccc4n3)cc2)CC1 [IS014, (S)-3-(2-(((S)-1-(4-((4-acryloylpiperazin-1-yl)methyl)phenyl)ethyl)amino)thieno [3,2-d]pyrimidin-4-yl)-4-isopropyloxazolidin-2-one]",,2.61,
"C=CC(=O)N1CCC(Oc2ccc(C(C)Nc3nccc(N4C(=O)OC[C@@H]4C(C)C)n3)cn2)CC1 (stereo partly drawn) [IS07, (4S)-3-(2-((1-(6-((1-acryloylpiperidin-4-yl)oxy)pyridin-3-yl)ethyl)amino)pyrimidin-4-yl)-4-isopropyloxazolidin-2-one]",340,,
"C=CC(=O)Nc1cccc(Nc2ccc([C@H](C)Nc3nccc(N4C(=O)OC[C@@H]4C(C)C)n3)cc2)c1 [IS05, N-(3-((4-((S)-1-((4-((S)-4-isopropyl-2-oxooxazolidin-3-yl)pyrimidin-2-yl)amino)ethyl)phenyl)amino)phenyl)acrylamide]",,4.67,> 1480
"C=CC(=O)Nc1ccc(Nc2ccc([C@H](C)Nc3nccc(N4C(=O)OC[C@@H]4C(C)C)n3)cc2)cc1 [IS04, N-(4-((4-((S)-1-((4-((S)-4-isopropyl-2-oxooxazolidin-3-yl)pyrimidin-2-yl)amino)ethyl)phenyl)amino)phenyl)acrylamide]",10.5,7.55,> 10000
"C=CC(=O)N1CCN(Cc2ccc([C@H](C)Nc3nccc(N4C(=O)OC[C@@H]4C(C)C)n3)cc2)CC1 [IS01, (S)-3-(2-(((S)-1-(4-((4-acryloylpiperazin-1-yl)methyl)phenyl)ethyl)amino)pyrimidin-4-yl)-4-isopropyloxazolidin-2-one]",1.32,1.61,9460
"C=CC(=O)Nc1cccc(-c2cnc(C(C)Nc3nccc(N4C(=O)OC[C@@H]4C(C)C)n3)nc2)c1 (stereo partly drawn) [IS013, N-(3-(2-(1-((4-((S)-4-isopropyl-2-oxooxazolidin-3-yl)pyrimidin-2-yl)amino)ethyl)pyrimidin-5-yl)phenyl)acrylamide]",107,285,
